Where “and” joins values, the source holds several entries; their conditions need not be identical. Identical values can stand only once. Like-named read-outs stand apart in the source and are kept apart here. Marks after values point to notes of the source that are not given here.
Tests used:
[1] = target: T1, human Serotonin 5-HT1A receptor (Homo sapiens, UniProt P08908); assay: cAMP HTRF assay, agonist mode, 5-HT1A; assay type: cell-based; conditions: % of reference agonist at EC100, average where marked d
T1 sequence (P08908 1-422): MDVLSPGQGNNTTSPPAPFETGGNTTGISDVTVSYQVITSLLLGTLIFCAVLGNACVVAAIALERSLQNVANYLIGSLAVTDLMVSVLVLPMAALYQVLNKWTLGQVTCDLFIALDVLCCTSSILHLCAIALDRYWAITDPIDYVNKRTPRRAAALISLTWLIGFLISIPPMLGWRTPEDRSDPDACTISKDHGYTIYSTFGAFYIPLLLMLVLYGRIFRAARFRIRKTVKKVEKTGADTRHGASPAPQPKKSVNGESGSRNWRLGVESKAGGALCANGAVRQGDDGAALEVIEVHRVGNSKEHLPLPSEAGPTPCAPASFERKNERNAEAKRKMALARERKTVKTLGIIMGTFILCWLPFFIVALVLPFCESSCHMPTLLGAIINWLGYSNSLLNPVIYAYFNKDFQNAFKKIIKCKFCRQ
Description: (§1) SPA ^35S-GTPgS experiments are conducted with membrane preparations. IP-One and cAMP HTRF assays are conducted with recombinant cell lines.
(§2) Agonist activity of test compounds is expressed as a percentage of the activity of the reference agonist at its EC100 concentration. Antagonist activity of the test compound is expressed as a percentage of the inhibition of reference agonist activity at its EC80 concentration.

[2] = target: T2, human Serotonin 5-HT7A receptor (Homo sapiens, UniProt P34969); assay: Radioligand binding competition, filtration binding assay, 5-HT7A; conditions: for Ki: CHO-K1 membranes
T2 construct: expressed in transfected cells; host or cells: CHO-K1
T2 sequence (P34969 1-445 isoform P34969-2): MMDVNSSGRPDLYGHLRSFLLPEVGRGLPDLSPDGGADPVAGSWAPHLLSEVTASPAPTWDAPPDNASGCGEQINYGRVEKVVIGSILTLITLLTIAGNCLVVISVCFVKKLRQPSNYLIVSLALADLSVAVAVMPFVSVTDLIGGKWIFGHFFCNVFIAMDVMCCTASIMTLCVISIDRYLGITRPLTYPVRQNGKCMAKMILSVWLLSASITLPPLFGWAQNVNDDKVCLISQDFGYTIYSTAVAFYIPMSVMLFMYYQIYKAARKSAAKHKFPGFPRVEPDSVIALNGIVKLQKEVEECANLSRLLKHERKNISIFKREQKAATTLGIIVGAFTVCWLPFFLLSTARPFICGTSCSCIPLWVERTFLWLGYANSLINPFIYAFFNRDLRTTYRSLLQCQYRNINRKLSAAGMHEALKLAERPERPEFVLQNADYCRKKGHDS
Description: Radioligand binding experiments are conducted with membrane preparations.

[3] = target: T3, human Serotonin 5-HT2A receptor (Homo sapiens, UniProt P28223); assay: IPOne HTRF assay, agonist mode, 5-HT2A; assay type: cell-based; conditions: for Top % Activation at maximal concentration, 5-HT2A (agonist mode): % of reference agonist at EC100, average where marked d
T3 construct: expressed in transfected cells; host or cells: CHO-K1
T3 sequence (P28223 whole entry): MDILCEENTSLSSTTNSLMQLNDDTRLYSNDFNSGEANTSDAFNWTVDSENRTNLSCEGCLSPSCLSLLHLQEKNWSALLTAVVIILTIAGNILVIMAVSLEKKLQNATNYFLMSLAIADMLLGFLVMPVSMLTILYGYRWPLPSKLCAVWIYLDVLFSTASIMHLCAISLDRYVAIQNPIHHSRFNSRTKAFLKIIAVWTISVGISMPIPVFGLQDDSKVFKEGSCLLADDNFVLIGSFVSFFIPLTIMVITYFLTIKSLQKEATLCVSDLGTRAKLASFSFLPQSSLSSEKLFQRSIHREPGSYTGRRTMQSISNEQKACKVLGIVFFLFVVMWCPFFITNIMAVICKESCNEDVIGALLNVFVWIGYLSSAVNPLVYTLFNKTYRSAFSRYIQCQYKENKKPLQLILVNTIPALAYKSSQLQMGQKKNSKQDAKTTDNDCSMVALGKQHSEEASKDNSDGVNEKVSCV
Description: as §1, §2

[4] = target: human Dopamine D3 receptor (Homo sapiens, UniProt P35462); conditions: GTPγS; average where marked d
Chain of human Dopamine D3 receptor (P35462 whole entry): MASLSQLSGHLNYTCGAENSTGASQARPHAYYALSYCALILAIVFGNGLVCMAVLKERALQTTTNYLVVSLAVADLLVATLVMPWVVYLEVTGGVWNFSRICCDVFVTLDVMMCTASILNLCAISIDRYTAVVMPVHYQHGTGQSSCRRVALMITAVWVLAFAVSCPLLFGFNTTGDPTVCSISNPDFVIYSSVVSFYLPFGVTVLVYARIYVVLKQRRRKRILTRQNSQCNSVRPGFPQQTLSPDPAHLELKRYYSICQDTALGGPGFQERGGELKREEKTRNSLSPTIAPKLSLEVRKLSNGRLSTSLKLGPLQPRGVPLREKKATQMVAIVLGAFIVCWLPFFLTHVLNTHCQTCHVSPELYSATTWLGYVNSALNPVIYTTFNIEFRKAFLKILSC
Description: as §1, §2

[5] = target: T3, human Serotonin 5-HT2A receptor; assay: IPOne HTRF assay, antagonist mode, 5-HT2A; assay type: cell-based; conditions: IP-one
Description: IP-One and cAMP HTRF assays are conducted with recombinant cell lines.
as §2

[6] = system: Adult male Sprague Dawley rats; assay: Headshake response; assay type: in vivo, rat
Description: Example 9—Headshake Response
Adult male Sprague Dawley rats are used. […] DOI (3 mg/kg) is dissolved in saline and administered IP at a dose volume of 1 ml/kg (10 minutes prior to test).
The headshake response is a rapid, rhythmic shaking of the head in a radial motion. Data are analyzed by ANOVA followed by post hoc analysis where appropriate.

[7] = system: Adult male Sprague Dawley rats; assay: DOI-induced headshake response; assay type: in vivo, rat
Description: Example 10—DOI-Induced Headshake Response
Adult male Sprague Dawley rats are used. […] DOI (3 mg/kg) is dissolved in saline and administered IP at a dose volume of 1 ml/kg (10 minutes prior to test). Ketanserin (1 mg/kg) is dissolved in saline and injected IP 30 minutes prior to DOI at a dose volume of […].
Rats are then injected with DOI and headshakes are recorded 10 minutes after DOI injection for 10 minutes using video cameras. The headshake response is a rapid, rhythmic shaking of the head in a radial motion. Data is analyzed by ANOVA followed by post hoc analysis where appropriate.

[8] = system: Male Sprague Dawley rats; assay: Touchscreen-based rat Probabilistic Reward Task; assay type: in vivo; conditions: 1 mg/kg orally, 4-5 hr prior to session
Description: Example 7—Touchscreen-Based Rat Probabilistic Reward Task
The Probabilistic Reward Task (PRT) uses visual discrimination methodology to quantify reward responsiveness to both identify deficits and characterize drug-induced improvements. Groups of rats are trained on the touchscreen-based PRT and exposed to asymmetrical probabilistic contingencies to generate response biases to the richly rewarded stimulus (Pizzagalli, D. et al., Biological Psychiatry, 2005, 57, 319-327; Kangas, B. et al., Translational Psychiatry, 2020, 10(1):285; Wooldridge, L. et al., International Journal of Neuropsychopharmacology, 2021, 24, 409-418).
Male Sprague Dawley rats are used in the present study.
Briefly, a custom-built Plexiglas chamber (25×30×35 cm) is situated in a sound- and light-attenuating enclosure (40×60×45 cm). A 17″ touch-sensitive screen (1739L, ELO TouchSystems, Menlo Park, CA) comprises the inside right-hand wall of the enclosure. An infusion pump (PHM-100-5, Med Associates, St. Albans, VT) outside the enclosure is used to deliver sweetened condensed milk solution into the shallow reservoir of a custom-designed aluminum receptacle. […]
Following line-length discrimination training, probabilistic reinforcement schedules are introduced. […] These probabilistic contingencies are assessed across 5 consecutive sessions prior to initiation of drug testing.

[9] = In vitro metabolism, disappearance in pooled cryopreserved human hepatocytes; assay type: in vitro ADME; conditions: 5 μM; for Disappearance without cells (buffer), 0 min, % / Disappearance without cells (buffer), 60 min, % / Disappearance without cells (buffer), 120 min, %: no cell control / buffer; for Disappearance in human hepatocytes, 0 min, % / Disappearance in human hepatocytes, 60 min, % / Disappearance in human hepatocytes, 120 min, %: with cells
Description: Study compounds are investigated in pooled cryopreserved human (mixed gender) hepatocytes. The incubations are performed using 5 μM initial concentration and sampling at 0, 60, and 120 minute time points. The samples are analyzed using UPLC-QE-orbitrap-MS. Incubation volume: 300 μl in 48-well plate. Number of cells: 1 million viable cells/ml. Test compound: 5 μM (stock solution in DMSO). Incubation medium: pH 7.4, Bioreclamation IVT in vitro KHB medium. Shaking: 600 rpm. Time points: 0, 60, and 120 minutes with and without cells. Temperature: 37° C. Sampling volume: 60 μl. DMSO content in incubation: 0.5%. […] Control: verapamil disappearance rate.
Sample preparation for hepatocyte samples: Samples are centrifuged for 20 min at 2272×g at room temperature and pipetted to a UPLC-plate for analysis.

[10] = target: T2, human Serotonin 5-HT7A receptor; assay: cAMP HTRF assay, antagonist mode, 5-HT7A; assay type: cell-based
[11] = target: T4, human Dopamine D4.4 receptor (Homo sapiens, UniProt P21917); conditions: cAMP; average where marked d
T4 sequence (P21917 1-419): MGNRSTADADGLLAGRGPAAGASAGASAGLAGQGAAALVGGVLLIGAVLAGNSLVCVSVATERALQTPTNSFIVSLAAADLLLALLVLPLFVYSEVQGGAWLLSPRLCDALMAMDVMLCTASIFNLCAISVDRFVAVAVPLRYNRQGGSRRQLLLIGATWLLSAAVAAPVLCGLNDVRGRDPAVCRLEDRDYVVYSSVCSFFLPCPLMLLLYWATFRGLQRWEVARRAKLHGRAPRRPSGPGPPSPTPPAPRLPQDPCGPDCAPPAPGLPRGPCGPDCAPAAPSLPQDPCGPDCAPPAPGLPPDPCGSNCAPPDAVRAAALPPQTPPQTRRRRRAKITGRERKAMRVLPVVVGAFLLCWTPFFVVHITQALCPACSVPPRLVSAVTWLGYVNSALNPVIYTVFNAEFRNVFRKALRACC
Description: as §1, §2

[12] = target: human Dopamine D2S receptor (Homo sapiens, UniProt P14416)
Chain of human Dopamine D2S receptor (P14416 1-414 isoform P14416-2): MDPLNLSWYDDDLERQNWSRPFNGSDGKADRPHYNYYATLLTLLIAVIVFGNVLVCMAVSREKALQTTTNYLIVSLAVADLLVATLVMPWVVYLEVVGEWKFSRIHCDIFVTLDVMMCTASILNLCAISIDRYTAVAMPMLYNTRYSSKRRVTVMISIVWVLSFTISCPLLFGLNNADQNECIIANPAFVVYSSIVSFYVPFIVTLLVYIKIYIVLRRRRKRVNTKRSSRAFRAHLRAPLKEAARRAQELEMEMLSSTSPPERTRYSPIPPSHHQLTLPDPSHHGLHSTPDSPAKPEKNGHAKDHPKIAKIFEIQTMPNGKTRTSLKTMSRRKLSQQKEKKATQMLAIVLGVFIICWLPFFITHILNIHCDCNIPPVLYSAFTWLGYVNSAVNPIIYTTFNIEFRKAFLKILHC
Description: as §1, §2

[13] = system: Adult male Wistar rats; assay: Conditioned Avoidance Response test; assay type: in vivo, rat
Description: Adult male Wistar rats are used.
The Conditioned Avoidance Response (CAR) Test is an animal model screening for antipsychotic drugs.

[14] = target: T3, human Serotonin 5-HT2A receptor; assay: Radioligand binding competition, filtration binding assay, 5-HT2A (labeled ketanserin)
[15] = [3H]-LSD, average where marked c, read-out: Binding 5-HT7A IC50
[16] = numbers in parentheses that were averaged, read-out: Binding 5-HT7A IC50, single determinations
[17] = 2.5 and 5 mg/kg orally, 4 hours prior to test
[18] = 0.5 mg/kg i.p., 30 minutes prior to test

For `CNc1cc(OC)c(C(=O)N[C@H]2CCN(Cc3ccccc3)[C@H]2C)cc1Cl` (racemic) [Nemonapride, (±)-cis-N-(1-Benzyl-2-methylpyrrolidin-3-yl)-5-chloro-2-methoxy-4-methylaminobenzamide], the “Top % Activation at maximal concentration, 5-HT1A (agonist mode)” value (from here on “Top % Activation … 5-HT1A (agonist mode)”) [1] was 52%, the Ki ([2]; [3H]-LSD) was 53.2 nM and the IC50 [2, 15] was 75.7 nM. The “Top % Activation at maximal concentration, 5-HT2A (agonist mode)” value ([3]; IP-one) was 48%, the “Top % Inhibition at maximal concentration, D3 (antagonist mode)” value (“Top % Inhibition … D3 (antagonist mode)” for short) [4] was 126% and the “Top % Inhibition at maximal concentration, 5-HT2A (antagonist mode)” value [5] was 33%.
In the case of `COc1cc(CC(C)N)c(OC)cc1I` (stereo not drawn) [DOI, reference compound], the “Number of headshakes compared to vehicle” value ([6]; 3 mg/kg i.p., 10 minutes prior to test) is reported as “significantly increases headshake responses” and the “Number of headshakes compared to vehicle” value ([7]; DOI 3 mg/kg IP, 10 minutes prior to test) is reported as “significantly increases the number of headshakes”.
With `[2H]C([2H])([2H])Nc1cc(OC)c(C(=O)N[C@@H]2CCN(C([2H])([2H])c3ccccc3)[C@@H]2C)cc1Cl` [Example 1, 5-Chloro-N-((2R,3R)-1-(dideutero(phenyl)methyl)-2-methylpyrrolidin-3-yl)-2-methoxy-4-(trideuteromethylamino)benzamide] the “Reward response bias (log b)” value [8] was “enhances reward response bias (log b) significantly”, the “Top % Activation … 5-HT1A (agonist mode)” value [1] was 64^d % and the Ki ([2]; [3H]-LSD) was 82.6 nM. For the same molecule, the IC50 [2, 15] was 131 nM, the IC50 [2, 16] was 143 nM and 118 nM and the “Disappearance without cells (buffer), 0 min, %” value [9] was 100%. For the same molecule, the “Disappearance without cells (buffer), 60 min, %” value [9] was 91%, the “Disappearance without cells (buffer), 120 min, %” value [9] was 92% and the “Disappearance in human hepatocytes, 0 min, %” value [9] was 100%. For the same molecule, the “Disappearance in human hepatocytes, 60 min, %” value [9] was 8%, the “Disappearance in human hepatocytes, 120 min, %” value [9] was 1% and the “Top % Activation at maximal concentration, 5-HT2A (agonist mode)” value ([3]; IP-one) was 69^d %. The “Top % Activation, 5-HT2A (agonist mode), single determinations” value ([3]; IP-one, numbers in parentheses that were averaged, listed as Ex. 1 (A2)) was 53% and 82% and 68% and 72%, the “5-HT2A agonism (in words)” value ([3]; compared with non-deuterated analog / summary of Tables 4 and 5) was 5-HT2A partial agonist and higher 5-HT2A agonism and the IC50 [10] was greater than 3000 nM. The “Top % Inhibition … D3 (antagonist mode)” value [4] was 122^d %, the “Number of headshakes compared to vehicle” value ([6]; 1, 5 and 10 mg/kg PO, 4 hours prior to test) was “no significant increase” and the “Top % Inhibition at maximal concentration, D4 (antagonist mode)” value [11] was 100^d %. The “Top % Inhibition, D2S (antagonist mode), single determinations” value [12] was 93) %, the “Top % Inhibition, D2S (antagonist mode), single determinations” value ([12]; cAMP, numbers in parentheses that were averaged) was “(104, %” and the DOI-induced headshake responses ([7]; 1, 5 and 10 mg/kg PO, 4 hours prior, DOI 3 mg/kg IP) was “significantly attenuate DOI-induced headshake responses”. For the same molecule, the “Escape failures compared to vehicle” value ([13]; 0.5, 2.5 and 5 mg/kg orally, 4 hours prior to test) was “None of the doses of the deuterated compound of Example 1 (A2) have a significant treatment effect”, the “Number of avoidance responses compared to vehicle” value [13, 17] was “significantly decrease” and the “Percent avoidance compared to vehicle” value [13, 17] was “significantly decrease”.
In the case of `O=C(c1ccc(F)cc1)C1CCN(CCn2c(=O)[nH]c3ccccc3c2=O)CC1` [Ketanserin], the DOI-induced headshake responses ([7]; 1 mg/kg IP, 30 minutes prior to DOI 3 mg/kg IP) is reported as “significantly attenuate DOI-induced headshake responses”.
In the case of `CCN1CCC[C@@H]1CNC(=O)c1c(OC)ccc(Br)c1OC` [R-remoxipride], the “Binding to the 5-HT2A receptor in vitro (in words)” value [14] is reported as “do not even bind”.
In the case of `CCN1CCC[C@H]1CNC(=O)c1c(OC)ccc(Br)c1OC` [S-remoxipride], the “Binding to the 5-HT2A receptor in vitro (in words)” value [14] is reported as “do not even bind”.
With `CNc1cc(OC)c(C(=O)N[C@@H]2CCN(Cc3ccccc3)[C@@H]2C)cc1Cl` [cis (R,R) nemonapride, N-[(2R,3R)-1-benzyl-2-methylpyrrolidin-3-yl]-5-chloro-2-methoxy-4-(methylamino)benzamide, reference compound] the “Top % Activation … 5-HT1A (agonist mode)” value [1] was 78^d %, the Ki ([2]; [3H]-LSD) was 102 nM and the IC50 [2, 15] was 129 nM. The IC50 [2, 16] was 112 nM and 145 nM, the “Disappearance without cells (buffer), 0 min, %” value [9] was 100% and the “Disappearance without cells (buffer), 60 min, %” value [9] was 96%. The “Disappearance without cells (buffer), 120 min, %” value [9] was 99%, the “Disappearance in human hepatocytes, 0 min, %” value [9] was 100% and the “Disappearance in human hepatocytes, 60 min, %” value [9] was 10%. The “Disappearance in human hepatocytes, 120 min, %” value [9] was 2%, the “Top % Activation at maximal concentration, 5-HT2A (agonist mode)” value ([3]; IP-one) was 44^d % and the IC50 [10] was 2470 nM. The “Top % Inhibition … D3 (antagonist mode)” value [4] was 99^d % and the “Top % Inhibition at maximal concentration, D4 (antagonist mode)” value [11] was 111^d %.
For `Cc1nc2n(c(=O)c1CCN1CCC(c3noc4cc(F)ccc34)CC1)CCCC2` [risperidone, reference compound], the “Number of avoidance responses compared to vehicle” value [13, 18] was “significantly decrease” and the “Percent avoidance compared to vehicle” value [13, 18] was “significantly decrease”.

From patent publication US20250091990A1, “DEUTERATED ORGANIC COMPOUNDS AND USES THEREOF” (ENGRAIL THERAPEUTICS, INC., priority 2022, published 2025)
